Source: US20200297711A1, “PHARMACEUTICAL COMPOSITION COMPRISING FGFR SELECTIVE TYROSINE KINASE INHIBITOR” (priority 2017, published 2020)
Marks after values point to notes of the source that are not given here.

Assay: Pharmacokinetics in plasma following single dose and repeated doses of Compound A 1.5 succinate
Type: in vivo, human
Conditions: Compound B
Protocol: In order to evaluate the PK when administered as a single dose, a single dose of Compound A for each treatment group (at the corresponding dosage for that group) was administered on Day 1. Compound A was administered when fasted, immediately after waking up with at least 10 hours fasting. Taking any meal was prohibited for 2 hours after administration and only drinking water was allowed.
Cycle 1 was started between 8 and 10 days after dosing in Cycle 0 and Compound A was administered continuously once daily. Compound A was administered at least 2 hours after breakfast, and any food intake was prohibited for 1 hour after administration. However, on Day 8 of Cycle 1, Compound A was administered immediately after waking up while the subject was fasted after at least 10 hours of overnight fasting in order to evaluate the PK. Taking any meals was prohibited for 2 hours after administration and only drinking water was allowed.
Plasma concentration profile of Compound A following a single dose and repeated doses of Compound A 1.5 succinate are shown in FIG. 1 and FIG. 2, respectively. The profile shown in FIG. 2 is that at steady state.
(§1) The pharmacokinetic parameters of Compound A following the single dose and repeated doses of Compound A 1.5 succinate are shown in the following table. The pharmacokinetic parameters of Compound A following repeated doses of Compound A 1.5 succinate shown below are those at steady state.
as §1, with “1.5 succinate updated after obtaining the above data are shown” for “1.5 succinate are shown”
The pharmacokinetic parameters of Compound B following the single dose and repeated doses of Compound A 1.5 succinate are shown in the following table. The pharmacokinetic parameters of Compound B following repeated doses of Compound A 1.5 succinate shown below are those at steady state.

[1] = repeated once-daily doses of Compound A 30 mg, steady state (n = 2)
[2] = repeated once-daily doses of Compound A 60 mg, steady state (n = 2)
[3] = repeated once-daily doses of Compound A 100 mg, steady state (n = 3)
[4] = repeated once-daily doses of Compound A 140 mg, steady state (n = 3)
[5] = repeated once-daily doses of Compound A 180 mg, steady state (n = 3)
[6] = single dose of Compound A 30 mg (n = 2)
[7] = single dose of Compound A 60 mg (n = 3)
[8] = single dose of Compound A 100 mg (n = 3)
[9] = single dose of Compound A 140 mg (n = 3)
[10] = single dose of Compound A 180 mg (n = 3)

AUC(0-t) [1]: 194 ng·h/mL
Cavg [1]: 7.71 ng/mL
Cmax [1]: 12.4 ng/mL
Cmin [1]: 5.19 ng/mL
tmax, median (minimum − maximum) [1]: 3.49 (1.97-5.00) h
AUC(0-t) [2]: 565 ^a^ h* ng/mL
Cavg [2]: 22.6 ^a ng/mL
Cmax [2]: 44.2 ^a ng/mL
Cmin [2]: 12.3 ^a ng/mL
tmax, median (minimum − maximum) [2]: 2.54 (2.07-3.00) ^a h
AUC(0-t) [3]: 805 ± 195 ng·h/mL
Cavg [3]: 32.3 ± 7.79 ng/mL
Cmax [3]: 55.4 ± 14.5 ng/mL
Cmin [3]: 17.4 ± 7.37 ng/mL
tmax, median (minimum − maximum) [3]: 5.00 (4.98-5.05) h
AUC(0-t) [4]: 1620 ± 460 ng·h/mL
Cavg [4]: 66.1 ± 18.8 ng/mL
Cmax [4]: 106 ± 51.8 ng/mL
Cmin [4]: 41.5 ± 10.9 ng/mL
tmax, median (minimum − maximum) [4]: 5.00 (2.98-5.08) h
AUC(0-t) [5]: 1500 ± 686 ng·h/mL
Cavg [5]: 60.4 ± 27.7 ng/mL
Cmax [5]: 98.0 ± 39.5 ng/mL
Cmin [5]: 32.8 ± 13.0 ng/mL
tmax, median (minimum − maximum) [5]: 5.00 (3.05-5.08) h
AUC(0-inf) [6]: 297 ng·h/mL
AUC(0-t) [6]: 274 ng·h/mL
Cmax [6]: 19.2 ng/mL
t1/2 [6]: 21.5 h
tmax, median (minimum − maximum) [6]: 3.59 (2.02-5.15) h
AUC(0-inf) [7]: 687 ± 354 ng·h/mL
AUC(0-t) [7]: 652 ± 352 ng·h/mL
Cmax [7]: 35.1 ± 19.1 ng/mL
t1/2 [7]: 26.1 ± 10.2 h
tmax, median (minimum − maximum) [7]: 4.98 (3.00-5.07) h
AUC(0-inf) [8]: 699 ± 163 ng·h/mL
AUC(0-t) [8]: 647 ± 153 ng·h/mL
Cmax [8]: 38.4 ± 4.36 ng/mL
t1/2 [8]: 20.0 ± 0.794 h
tmax, median (minimum − maximum) [8]: 4.95 (2.97-5.10) h
AUC(0-inf) [9]: 1410 ± 216 ng·h/mL
AUC(0-t) [9]: 1350 ± 233 ng·h/mL
Cmax [9]: 63.8 ± 36.1 ng/mL
t1/2 [9]: 40.50 ± 6.46 h
tmax, median (minimum − maximum) [9]: 5.00 (4.88-5.08) h
AUC(0-inf) [10]: 1370 ± 703 ng·h/mL
AUC(0-t) [10]: 1320 ± 693 ng·h/mL
Cmax [10]: 50.7 ± 20.7 ng/mL
t1/2 [10]: 39.9 ± 6.27 h
tmax, median (minimum − maximum) [10]: 5.00 (3.00-5.02) h
Structure (SMILES): CNC(=O)n1ccc2cc(Oc3ccnc(NC(=O)c4ccc(C5CCNCC5)cc4)c3)c(OCCOC)cc21 [Compound B, 6-(2-Methoxyethoxy)-N-methyl-5-((2-(4-(piperidin-4-yl)benzamide)pyridin-4-yl)oxy)-1H-indole-1-carboxamide]
